In patent US7517998B2, “Non nucleoside reverse transcriptase inhibitors” (priority 2004, dated 2009):

The compounds below were run against T1, K103NNY181C mutant reverse transcriptase (Human immunodeficiency virus type 1 group M subtype B, UniProt P04585, K690N/Y768C) (assay: Reverse transcriptase enzymatic assay (PicoGreen), K103N/Y181C mutant RT). Settings: IC50 mut (nM), mutant (K103N/Y181C) reverse transcriptase, enzymatic assay of Example 24.
T1 construct: mutations that occur in the reverse transcriptase segment of the pol gene
Type: biochemical, HIV-1
Protocol: The enzymatic assay employed is described as follows: The reverse transcriptase (RT) enzyme assay has been adapted to a 96-well microtiter plate format and uses PicoGreen™ as a fluorescent intercalator. More explicitly, the HIV-1 RT enzyme was thawed and appropriately diluted into Tris/HCl 50 mM pH 7.8 containing NaCl 60 mM, MgCl2.6H2O 2 mM, DTT 6 mM, GSH 2 mM and 0.02% w/v Chaps to give ≈10 nM enzyme. To 10 μL of this enzyme solution was added 10 μL of inhibitor solution (40 μM to 2.032 nM inhibitor in the same assay buffer as above containing 4% v/v DMSO). The plate was pre-incubated for 15 minutes at room temperature before proceeding to the next step. In this pre-incubation step, the highest and lowest inhibitor concentrations were 20 μM and 1.016 nM respectively and the concentration of DMSO was 2% v/v. Then the enzymatic reaction was initiated by addition of 20 μL of substrate solution. The final reaction mixture contained Tris/HCl 50 mM pH 7.8, NaCl 60 mM, MgCl2.6H2O 2 mM, DTT 6 mM, GSH 2 mM, CHAPS 0.02% w/v, DMSO 1% v/v, poly rC 45 nM, dG15 4.5 nM, dGTP 3.6 μM, and 2.5 nM enzyme. In this incubation step, the highest and lowest inhibitor concentrations were 10 μM and 0.508 nM respectively. After addition of the substrate cocktail, the plate was covered with a plastic seal and incubated for 50 minutes at 37° C. in a dry incubator. The reaction was then quenched by addition of 5 μL of EDTA 0.5 M. The plate was shaken for 30 seconds at medium speed and incubated for 5 minutes at room temperature. Then 160 μL of PicoGreen™ 1:400 dilution from commercial stock (diluted in Tris 20 mM pH 7.5 with EDTA 1 mM) was added and the plate was shaken for 30 seconds and incubated for 10 minutes at room temperature. The plate was then analyzed using a POLARstar Galaxy fluorometer (BMG Labtechnologies) with λex and λem of 485 nm and 520 nm respectively. Each well was read for 1.25 second. Each row contained at its extremities a blank and a control well.
Work on `CC(C)(C)c1ccc(-n2nnnc2SCC(=O)Nc2ccc(NC(=O)Nc3ccccc3)cc2Cl)c(Cl)c1` [Compound 7002] yielded an IC50 of 187 nM.
`CC(C)(C)c1ccc(-n2nnnc2SCC(=O)Nc2ccc(NC(=O)Nc3ccc(C(=O)O)cc3)cc2Cl)c(Cl)c1` [Compound 7009] was tested, and the IC50 was 43 nM.
Compound `CC(C)CCC(=O)Nc1ccc(NC(=O)CSc2nnnn2-c2ccc(C(C)(C)C)cc2Cl)c(Cl)c1` [Compound 7024] has an IC50 of 414 nM.
`CC(C)(C)c1ccc(-n2nnnc2SCC(=O)Nc2ccc(NC(=O)Cc3cc[n+]([O-])cc3)cc2Cl)c(Cl)c1` [Compound 7046] showed an IC50 of 140 nM.
With `CC(C)(C)c1ccc(-n2nnnc2SCC(=O)Nc2ccc(NC(=O)Cc3ccc[n+]([O-])c3)cc2Cl)c(Cl)c1` [Compound 7048] the IC50 was 97 nM.

Same assay, conditions: IC50 mut, K103N/Y181C mutant reverse transcriptase, enzymatic assay of Example 24
In the case of `Cc1c(NC(=O)CSc2nnnn2-c2ccc(C3CC3)cc2Cl)ccc(C#CC(C)(C)NC(=O)c2cc[n+]([O-])cc2)c1F` [Compound 4178], the IC50 is reported as 26 nM.
`CC(C)(C#Cc1ccc(NC(=O)CSc2nnnn2-c2ccc(C3CC3)cc2Cl)c(Cl)c1)C(=O)NCCCN1CCCC1=O` [Compound 4152] showed an IC50 of 36.5 nM.
In the case of `CC(C)(C#Cc1ccc(NC(=O)CSc2nnnn2-c2ccc(C3CC3)cc2Cl)c(Cl)c1)NCC(N)=O` [Compound 4231], the IC50 is reported as 16 nM.
Work on `CC(C)(C#Cc1ccc(NC(=O)CSc2nnnn2-c2cc(F)ccc2Cl)c(Cl)c1)C(=O)O` [Compound 4212] yielded an IC50 of 362 nM.
`CCCC#Cc1ccc(NC(=O)CSc2nnnn2-c2ccc(C(C)(C)C)cc2Cl)c(Cl)c1` [Compound 4009] gave an IC50 of 8.9 nM.
In the case of `CC(C)(C#Cc1ccc(NC(=O)CSc2nnnn2-c2ccc(C(C)(C)C)cc2Cl)c(Cl)c1)OCC(=O)NC1(C(=O)O)CC1` [Compound 4036], the IC50 is reported as 36 nM.
`CC(C)(C)c1ccc(-n2nnnc2SCC(=O)Nc2ccc(C#Cc3ccccc3)cc2Cl)c(Cl)c1` [Compound 4002] gave an IC50 of 268 nM.
In the case of `CC(C)(C#Cc1ccc(NC(=O)CSc2nnnn2-c2cc(Cl)c(C3CC3)cc2Cl)c(Cl)c1)C(=O)O` [Compound 4206], the IC50 is reported as 152 nM.
Compound `O=C(CSc1nnnn1-c1ccc(C2CC2)cc1Cl)Nc1ccc(C#CC2(CN3CCC(O)CC3)CC2)cc1Cl` [Compound 4096] has an IC50 of 37 nM.
Work on `COc1ccc(Cl)c(-n2nnnc2SCC(=O)Nc2ccc(C#CC(C)(C)C(=O)O)cc2Cl)c1` [Compound 4114] yielded an IC50 of 200 nM.
For `CC(C)(C#Cc1ccc(NC(=O)CSc2nnnn2-c2ccc(C3CC3)cc2Cl)c(Cl)c1)NC(=O)c1ccccc1` [Compound 4106], the IC50 was 19 nM.
`CC(C)(C)c1ccc(-n2nnnc2SCC(=O)Nc2ccc(C#CCO)cc2Cl)c(Cl)c1` [Compound 4006] was tested, and the IC50 was 11 nM.
`CC(=O)NC(C)(C)C#Cc1ccc(NC(=O)CSc2nnnn2-c2ccc(C3CC3)cc2Cl)c(Cl)c1` [Compound 4080] gave an IC50 of 8.45 nM.
Work on `CC(C)(N)C#Cc1ccc(NC(=O)CSc2nnnn2-c2cc(C(C)(C)C)cc(Br)c2Cl)c(Cl)c1` [Compound 4221] yielded an IC50 of 108 nM.
`CC(C)(C#Cc1ccc(NC(=O)CSc2nnnn2-c2ccc(C3CC3)cc2Cl)c(Cl)c1)OCCN` [Compound 4190] gave an IC50 of 59.5 nM.
`C#Cc1ccc(NC(=O)CSc2nnnn2-c2ccc(C(C)(C)C)cc2Cl)c(Cl)c1` [Compound 4089] showed an IC50 of 69 nM.
`CC(C)(C#Cc1ccc(NC(=O)CSc2nnnn2-c2ccc(C(C)(C)C)cc2Cl)c(Cl)c1)OCC(=O)Nc1ccncc1` [Compound 4041] gave an IC50 of 35 nM.
`CC(C)(C)c1ccc(-n2nnnc2SCC(=O)Nc2ccc(C#CCCCOC(N)=O)cc2Cl)c(Cl)c1` [Compound 4061] gave an IC50 of 16 nM.
With `O=C(CSc1nnnn1-c1ccc(C2CC2)cc1Cl)Nc1ccc(C#CC2(CN3CCCC3)CC2)cc1Cl` [Compound 4092] the IC50 was 61.5 nM.
In the case of `CC(C)(C#Cc1ccc(NC(=O)CSc2nnnn2-c2ccc(C3CC3)cc2Cl)c(Cl)c1F)OCCOc1ccncc1` [Compound 4165], the IC50 is reported as 67.5 nM.
Compound `CC(C)(O)C#Cc1ccc(NC(=O)CSc2nnnn2-c2cc(C(C)(C)C)ccc2Cl)c(Cl)c1` [Compound 4199] has an IC50 of 32 nM.
`CC(C)(C#Cc1ccc(NC(=O)CSc2nnnn2-c2ccc(C(C)(C)C)cc2Cl)c(Cl)c1)OCC(=O)NNC(N)=O` [Compound 4056] was tested, and the IC50 was 26 nM.
`CC(C)(C#Cc1ccc(NC(=O)CSc2nnnn2-c2ccc(CC3CC3)cc2Cl)c(Cl)c1)OCCN1CCCC1` [Compound 4246] gave an IC50 of 212 nM.
`CC(C)(C#Cc1ccc(NC(=O)CSc2nnnn2-c2cc(C3CC3)ccc2Cl)c(Cl)c1F)OCCN1CCNCC1` [Compound 4209] gave an IC50 of 46 nM.

Same assay, conditions: IC50 mut, mutant reverse transcriptase, enzymatic assay of Example 24
`CC(C)(C)c1ccc(-n2nnnc2SCC(=O)Nc2ccc(OCC(=O)Nc3ccc(CC(=O)O)cc3)cc2Cl)c(Cl)c1` [Compound 5023] showed an IC50 of 38 nM.
With `CC(C)(C)c1ccc(-n2nnnc2SCC(=O)Nc2ccc(-c3ccc(OCC(=O)O)cc3F)cc2Cl)c(Cl)c1` [Compound 3020] the IC50 was 23 nM.
In the case of `CC(C)(C)c1ccc(-n2nnnc2SCC(=O)Nc2ccc(OCC(=O)Nc3ccccc3C(=O)O)cc2Cl)c(Cl)c1` [Compound 5010], the IC50 is reported as 402 nM.
Compound `CC(C)(C#Cc1ccc(NC(=O)CSc2nnc(C(F)(F)F)n2-c2ccc(C3CC3)cc2Cl)c(Cl)c1)C(=O)O` [Compound 1017] has an IC50 of 72 nM.
Compound `O=C(CSc1nnnn1-c1ccc(C2CC2)cc1Cl)Nc1ccc(C(=O)NCCc2cc[n+]([O-])cc2)cc1Cl` [Compound 6035] has an IC50 of 39 nM.
`Cc1ccc(-n2nnnc2SCC(=O)Nc2ccc(-c3ccc(CC(N)=O)cc3)cc2[N+](=O)[O-])c(Cl)c1` [Compound 2013] showed an IC50 of 20 nM.
In the case of `CC(C)(C)c1ccc(-n2nnnc2SCC(=O)Nc2ccc(OCC(=O)NC3CCN(Cc4ccccc4)CC3)cc2Cl)c(Cl)c1` [Compound 5008], the IC50 is reported as 861 nM.
`Cc1ccc(-n2nnnc2SCC(=O)Nc2ccc(-c3c[nH]cn3)cc2Cl)c(Cl)c1` [Compound 3018] showed an IC50 of 269 nM.
Work on `CC(C)(C#Cc1ccc(NC(=O)CSc2nnc(C3CC3)n2-c2ccc(C3CC3)cc2Cl)c(Cl)c1)C(=O)O` [Compound 1019] yielded an IC50 of 525 nM.
`CC(CC(=O)O)NC(=O)c1ccc(NC(=O)CSc2nnnn2-c2ccc(C(C)(C)C)cc2Cl)c(Cl)c1` (stereo not shown) [Compound 6015] was tested, and the IC50 was 39 nM.
With `O=C(COc1ccc(NC(=O)CSc2nnnn2-c2ccc(C3CC3)cc2Cl)c(Cl)c1)NCCc1ccncc1` [Compound 5036] the IC50 was 271 nM.
Compound `O=C(O)Cc1ccc(-c2ccc(NC(=O)CSc3nnnn3-c3ccc4ncsc4c3Cl)c(Cl)c2)cc1` [Compound 2035] has an IC50 of 269 nM.
In the case of `O=C(CSc1nnnn1-c1ccc(C2CC2)cc1Cl)Nc1ccc(-c2ccc(OCCN3CCCC3)cc2)cc1Cl` [Compound 2046], the IC50 is reported as 6.95 nM.
For `COC(=O)C=C(C)c1ccc(NC(=O)CSc2nnnn2-c2ccc(C3CC3)cc2Cl)c(Cl)c1` [Compound 3044], the IC50 was 58.5 nM.
With `Cc1nnc(SCC(=O)Nc2ccc(-c3ccc(OCCN4CCCC4)cc3)cc2Cl)n1-c1ccc(C2CC2)cc1Cl` [Compound 1014] the IC50 was 81 nM.
Work on `CC(C)(C)c1ccc(-n2nnnc2SCC(=O)Nc2ccc(-c3ccc(OCCN4CCCC4)cc3)cc2Cl)c(Cl)c1` [Compound 2029] yielded an IC50 of 19 nM.
For `CC(C)(C)c1ccc(-n2nnnc2SCC(=O)Nc2ccc(-c3ccc(S(C)(=O)=O)cc3)cc2Cl)c(Cl)c1` [Compound 2027], the IC50 was 23 nM.
`CC(C)(C)c1ccc(-n2nnnc2SCC(=O)Nc2ccc(C(=O)NCCc3ccc(O)cc3)cc2Cl)c(Cl)c1` [Compound 6017] was tested, and the IC50 was 33 nM.
Compound `CC(C)(C)c1ccc(-n2nnnc2SCC(=O)Nc2ccc(OCC(=O)NCCc3ccc(O)cc3)cc2Cl)c(Cl)c1` [Compound 5016] has an IC50 of 116 nM.
Compound `O=C(O)Cc1ccc(-c2ccc(NC(=O)CSc3nnnn3-c3ccc(OC(F)(F)F)cc3Cl)c(Cl)c2)cc1` [Compound 2034] has an IC50 of 178 nM.
